Reference: doi:10.1101/2023.03.24.534094v2 (biorxiv, 2023)
Like-named read-outs stand apart in the source and are kept apart here. One block for each molecule: values may come before it.

Assays:
[1] = target: T1, Haspin (Homo sapiens, UniProt Q8TF76); assay: biochemical
T1 sequence (Q8TF76 1-798): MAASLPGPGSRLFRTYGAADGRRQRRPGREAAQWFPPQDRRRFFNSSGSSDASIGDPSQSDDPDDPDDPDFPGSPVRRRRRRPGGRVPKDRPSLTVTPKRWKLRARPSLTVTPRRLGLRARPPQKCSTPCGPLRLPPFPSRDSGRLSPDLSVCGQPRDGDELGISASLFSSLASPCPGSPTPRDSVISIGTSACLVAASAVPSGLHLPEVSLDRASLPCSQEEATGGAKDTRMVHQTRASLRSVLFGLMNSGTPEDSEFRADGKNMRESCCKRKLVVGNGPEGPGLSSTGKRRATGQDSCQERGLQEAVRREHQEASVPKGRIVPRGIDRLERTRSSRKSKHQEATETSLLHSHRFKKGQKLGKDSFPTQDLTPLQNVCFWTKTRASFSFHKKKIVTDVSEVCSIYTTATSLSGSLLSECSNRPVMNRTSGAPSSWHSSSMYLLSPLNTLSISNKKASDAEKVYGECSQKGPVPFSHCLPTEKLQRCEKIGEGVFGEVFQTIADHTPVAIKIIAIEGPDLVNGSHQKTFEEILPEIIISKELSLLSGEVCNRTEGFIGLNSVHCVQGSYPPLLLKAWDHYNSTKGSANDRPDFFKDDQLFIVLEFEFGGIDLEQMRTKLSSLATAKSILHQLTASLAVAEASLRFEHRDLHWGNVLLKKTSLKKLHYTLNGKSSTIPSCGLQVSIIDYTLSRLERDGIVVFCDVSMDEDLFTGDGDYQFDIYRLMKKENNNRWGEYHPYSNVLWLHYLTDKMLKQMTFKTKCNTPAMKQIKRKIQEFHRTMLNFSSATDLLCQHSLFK

[2] = target: T2, NEK1 (Homo sapiens, UniProt Q96PY6); assay: biochemical
T2 sequence (Q96PY6 1-1258): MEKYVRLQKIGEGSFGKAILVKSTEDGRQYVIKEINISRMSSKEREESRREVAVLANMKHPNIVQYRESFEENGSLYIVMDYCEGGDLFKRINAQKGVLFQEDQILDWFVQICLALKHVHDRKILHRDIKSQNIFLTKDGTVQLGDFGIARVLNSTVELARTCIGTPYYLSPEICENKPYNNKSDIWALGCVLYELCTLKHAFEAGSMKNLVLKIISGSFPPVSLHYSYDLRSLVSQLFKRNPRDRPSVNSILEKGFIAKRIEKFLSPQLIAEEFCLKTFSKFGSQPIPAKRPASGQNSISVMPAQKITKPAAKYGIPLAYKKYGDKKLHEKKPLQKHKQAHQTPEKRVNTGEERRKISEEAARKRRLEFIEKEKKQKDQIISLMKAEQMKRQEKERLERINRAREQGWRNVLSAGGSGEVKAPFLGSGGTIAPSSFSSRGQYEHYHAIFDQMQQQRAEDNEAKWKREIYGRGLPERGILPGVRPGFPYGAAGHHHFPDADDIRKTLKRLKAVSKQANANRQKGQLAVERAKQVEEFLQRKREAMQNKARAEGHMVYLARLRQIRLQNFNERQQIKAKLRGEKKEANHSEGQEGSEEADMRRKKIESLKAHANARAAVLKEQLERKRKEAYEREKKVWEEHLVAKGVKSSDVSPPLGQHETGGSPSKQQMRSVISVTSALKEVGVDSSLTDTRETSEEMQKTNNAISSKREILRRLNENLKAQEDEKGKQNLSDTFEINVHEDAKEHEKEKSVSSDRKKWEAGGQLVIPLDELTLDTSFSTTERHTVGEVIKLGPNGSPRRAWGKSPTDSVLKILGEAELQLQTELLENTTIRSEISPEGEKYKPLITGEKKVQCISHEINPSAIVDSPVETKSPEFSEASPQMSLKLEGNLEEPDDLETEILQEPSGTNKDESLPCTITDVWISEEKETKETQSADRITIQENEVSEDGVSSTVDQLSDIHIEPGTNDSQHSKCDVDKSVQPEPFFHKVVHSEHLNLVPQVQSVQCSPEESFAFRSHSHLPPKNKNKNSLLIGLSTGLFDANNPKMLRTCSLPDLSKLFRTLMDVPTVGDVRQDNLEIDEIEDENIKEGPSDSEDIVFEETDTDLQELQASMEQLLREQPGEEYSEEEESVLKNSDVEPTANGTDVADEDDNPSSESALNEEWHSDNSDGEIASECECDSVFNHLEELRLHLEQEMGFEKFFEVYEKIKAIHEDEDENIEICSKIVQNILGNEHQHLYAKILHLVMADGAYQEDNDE

- ΔTm at 10 µM ([1]; read-out: dTm 6): 0.7 °C
- ΔTm at 10 µM ([2]; read-out: dTm 6): -0.3 °C
SMILES: CNc1ncc2cc(-c3cc(Br)ccc3Cl)c(=O)n(CCCCN)c2n1 [compound 6, 8-(4-Aminobutyl)-6-(5-bromo-2-chlorophenyl)-2-(methylamino)pyrido[2,3-d]pyrimidin-7(8H)-one]

- ΔTm at 10 µM ([1]; read-out: dTm 7): 0.7 °C
- ΔTm at 10 µM ([2]; read-out: dTm 7): 0.1 °C
SMILES: CNc1ncc2cc(-c3cc(Br)ccc3Cl)c(=O)n(C[C@H]3OC[C@H](N)CO3)c2n1 [compound 7, 8-(((2r,5r)-5-Amino-1,3-dioxan-2-yl)methyl)-6-(5-bromo-2-chlorophenyl)-2-(methylamino)pyrido[2,3-d]pyrimidin-7(8H)-one]

- ΔTm at 10 µM ([1]; read-out: dTm MR22 (5)): -0.3 °C
- ΔTm at 10 µM ([2]; read-out: dTm MR22 (5)): 0 °C
SMILES: CNc1ncc2cc(-c3cc(F)ccc3F)c(=O)n(CCCCN)c2n1 [compound 5, 8-(4-Aminobutyl)-6-(2,5-difluorophenyl)-2-(methylamino)pyrido[2,3-d]pyrimidin-7(8H)-one]

- dTm G-5555 (2) ([1]; 10 µM, binder): 0.2 °C
- dTm G-5555 (2) ([2]; 10 µM, binder): -2.2 °C
SMILES: CNc1ncc2cc(-c3ccc(-c4cccc(C)n4)cc3Cl)c(=O)n(CC3OCC(N)CO3)c2n1 (stereo not shown) [compound 2, G-5555]

- ΔTm at 10 µM ([1]; read-out: dTm MR21 (4)): 0.7 °C
- ΔTm at 10 µM ([2]; read-out: dTm MR21 (4)): 0.1 °C
SMILES: CNc1ncc2cc(-c3ccccc3Cl)c(=O)n(CCCCN)c2n1 [compound 4, 8-(4-Aminobutyl)-6-(2-chlorophenyl)-2-(methylamino)pyrido[2,3-d]pyrimidin-7(8H)-one]
